In US11407717B2, “Benzimidazole derivatives and use thereof as IDH1 inhibitors” (KPC PHARMACEUTICALS, INC., priority 2018, dated 2022):
Like-named read-outs stand apart in the source and are kept apart here.

Experiments:
IDH1(R132C) = IDH1(R132C) (Homo sapiens, UniProt O75874, R132C); experiment: IDH1 in vitro enzyme activity test (IDH1 R132C); assay type: biochemical; details: 500 μM α-KG + 15 μM NADPH
Description: (§1) The IDH1 mutant catalyzes the NADPH-dependent reduction of α-KG (α-ketoglutarate) to 2-HG (2-hydroxyglutarate), and the consumed NADPH can be read by fluorescence.
(§2) Basic reaction buffer: 50 mM KH2PO4, pH 7.5, 10 mM MgCl2, 10% glycerol, 150 mM NaCl, 0.05% BSA (bovine serum albumin), 2 mM b-ME (2-mercaptoethanol), 0.003% Brij35 (polyethylene glycol lauryl ether)
(§3) Substrates and cofactors: • IDH1 wt (wild type): 65 μM isocitrate+50 μM NADP • IDH1(R132H): 1500 μM α-KG+15 μM NADPH • IDH1(R132C): 500 μM α-KG+15 μM NADPH
(§4) 1.33× enzyme (no enzyme in the control well), buffer, and NADP or NADPH (control well) were added into the wells of the reaction plate. The test compound was dissolved in 100% DMSO and then added to the enzyme mixture (Echo550, nanoliter level), and incubated for 60 minutes after simple centrifugation. A mixture of 4× substrate and cofactor were added to start the reaction. After simple centrifugation, the plate was incubated under shaking at room temperature for 45 minutes. A mixture of 3× lipoamide dehydrogenase and Resazurin was prepared, added to the reaction solution to test the amount of NADPH generated or remaining, and incubated at room temperature for 10 minutes after simple centrifugation. Multifunctional microplate reader Envision was used to measure (Ex/Em=535/590 nm).

IDH1(R132H) = IDH1(R132H) (Homo sapiens, UniProt O75874, R132H); experiment: IDH1 in vitro enzyme activity test (IDH1 R132H); assay type: biochemical; details: 1500 μM α-KG + 15 μM NADPH
Description: as §1, §2, §3, §4

[1] = system: U87MG-IDH1-R132H cell strain; experiment: IDH1 cytological activity test, 2HG content in cell culture supernatant by LC-MS; assay type: cell-based; details: Homo sapiens, U-87 MG, 72 h; 2-HG in supernatant, 3 days incubation
Description: In this study, the compound was incubated with the IDH1 mutant cell line, and the 2HG content in the cell culture supernatant was detected by LC-MS to determine the inhibitory activity of the compound on the IDH1 mutant. IDH1 catalyzes the […] of isocitrate to α-ketoglutarate (α-KG) in organisms, and the IDH1 mutant further catalyzes the reduction of α-KG to 2-hydroxyglutarate (2HG). The U87MG-IDH1-R132H cell strain is a stable transfected cell strain that can stably express IDH1-R132H mutant, obtained via screening by transfecting U87MG cells with IDH1-R132H, and the HT1080 cell strain contains an endogenous IDH1-R132C mutant. 1) The compound was diluted 3-fold with DMSO and then added to the cell culture plate, at a total of 10 concentrations, double duplicate holes for each concentration. The negative control well contains only DMSO, and the positive control well contained BAY1436032 at a final concentration of 5 μM. The final concentration of DMSO in all wells was 0.5%. 2) The IDH1 mutant cell line was seeded into a cell culture plate containing the compound at a density of 40,000 cells/well. The cells were incubated with the compound in a incubator at 37° C., 5% CO2 for 3 days. […]

IDH1 wt (wild type) = IDH1 wt (wild type) (Homo sapiens, UniProt O75874); experiment: IDH1 in vitro enzyme activity test (IDH1 wild type); assay type: biochemical; details: 65 μM isocitrate + 50 μM NADP
Description: as §1, §2, §3, §4

[2] = Evaluation of pharmacokinetics in mice; assay type: in vivo, CD-1 mice; details: for AUC(0-t): read-out: Area under curve AUC0-last
Description: 1) Experimental drug: Example 6;
2) Experimental animals: 8 male CD-1 mice aged 7-10 weeks, divided into 2 groups, 4 in each group;
3) Drug preparation: for the tail vein injection group, an appropriate amount of the drug was weighted, and dissolved in a mixed solvent of DMSO: 20% hydroxypropyl betacyclodextrin (HPbCD)=10:90 to prepare a 0.5 mg/mL solution; for the intragastric administration group, an appropriate amount of the drug was weighted, and dissolved in DMSO: polyoxyethylene castor oil EL (Cremophor EL):5% sulfobutyl cyclodextrin (Captisol)=5:10:85 to prepare a suspension.
Animals in group 1 were given a single injection of the drug at a dose of 1 mg/kg and a concentration of 0.5 mg/mL via tail vein, and animals in group 2 were given a compound at a dose of 20 mg/kg and a concentration of 2 mg/mL via gavage. Plasma samples were cross-collected from the animals at 0.0833 (tail vein injection group only), 0.25, 0.5, 1, 2, 4, 6, 8 and 24 hours after administration. The LC-MS/MS method was used to determine the drug concentration in the plasma sample, and the kinetic parameters of the tested drug are shown in Table 4: […]

Chain of IDH1(R132H) (O75874 whole entry R132H): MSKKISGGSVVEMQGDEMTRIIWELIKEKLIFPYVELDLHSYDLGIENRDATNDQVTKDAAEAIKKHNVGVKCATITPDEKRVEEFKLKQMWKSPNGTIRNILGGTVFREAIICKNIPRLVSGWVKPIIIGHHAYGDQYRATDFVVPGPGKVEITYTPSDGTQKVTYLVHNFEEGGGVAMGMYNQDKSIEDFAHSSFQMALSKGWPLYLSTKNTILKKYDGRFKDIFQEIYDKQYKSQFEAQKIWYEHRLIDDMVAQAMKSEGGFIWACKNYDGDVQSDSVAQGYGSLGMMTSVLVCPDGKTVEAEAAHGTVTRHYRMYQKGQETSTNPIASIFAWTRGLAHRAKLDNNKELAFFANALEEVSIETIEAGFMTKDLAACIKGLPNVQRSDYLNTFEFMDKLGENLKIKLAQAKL
Chain of IDH1(R132C) (O75874 whole entry R132C): as the sequence (O75874 whole entry R132H) above, with H132C counted along it
Chain of IDH1 wt (wild type) (O75874 whole entry): as the sequence (O75874 whole entry R132H) above, with H132R counted along it

Compound C[C@H](c1ccccc1)n1c(Nc2ccc(OC(F)(F)F)cc2)nc2cc(CCC(=O)O)ccc21 [Example 1] has an IC50 (IDH1(R132C)) of 102 nM, an IC50 (IDH1(R132H)) of 7.9 nM and an IC50 [1] of 92.8 nM. For the same compound, the IC50 (IDH1 wt (wild type)) was > 10000 nM.

C[C@@H](c1ccccc1)n1c(Nc2ccc(OC(F)(F)F)cc2)nc2cc(CCC(=O)O)ccc21 [Example 2] showed an IC50 (IDH1(R132H)) of 464 nM.

Compound C[C@H](c1ccc(Cl)cc1)n1c(Nc2ccc(OC(F)(F)F)cc2)nc2cc(CCC(=O)O)ccc21 [Example 3] has an IC50 (IDH1(R132H)) of 320 nM.

Work on C[C@H](c1ccc(F)cc1)n1c(Nc2ccc(OC(F)(F)F)cc2)nc2cc(CCC(=O)O)ccc21 [Example 4] yielded an IC50 (IDH1(R132H)) of 126 nM.

Compound CC[C@H](c1ccccc1)n1c(Nc2ccc(OC(F)(F)F)cc2)nc2cc(CCC(=O)O)ccc21 [Example 5] has an IC50 (IDH1(R132H)) of 89.5 nM.

With O=C(O)CCc1ccc2c(c1)nc(Nc1ccc(OC(F)(F)F)cc1)n2[C@@H]1CCCc2ccccc21 [Example 6] the IC50 (IDH1(R132C)) was 12.8 nM, the IC50 (IDH1(R132H)) was 3.94 nM and the “pharmacokinetic properties in mice (in words)” value ([2]; mice) was “good pharmacokinetic properties”. For the same compound, the AUC(0-t) ([2]; mouse, iv, male CD-1 mice, tail vein injection, 1 mg/kg, plasma) was 15.5 µM·h, the C0 ([2]; mouse, iv, male CD-1 mice, tail vein injection, 1 mg/kg, plasma, read-out: Initial concentration C0) was 3.54 µM and the clearance ([2]; mouse, plasma, iv, male CD-1 mice, tail vein injection, 1 mg/kg, read-out: Clearance Cl) was 2.17 mL/min/kg. The half-life ([2]; mouse, plasma, iv, male CD-1 mice, tail vein injection, 1 mg/kg, read-out: Half-life T1/2 (converted)) was 2.9 h, the Vd ([2]; mouse, plasma, iv, male CD-1 mice, tail vein injection, 1 mg/kg, read-out: Volume of distribution Vd) was 0.69 L/kg and the bioavailability ([2]; mouse, plasma, po, male CD-1 mice, intragastric 20 mg/kg vs tail vein 1 mg/kg, read-out: Bioavailability F) was 99.1%. It also gave a Tmax ([2]; mouse, plasma, po, male CD-1 mice, intragastric administration, 20 mg/kg, read-out: Time of highest concentration T1/2 (converted)) of 1 h, an AUC(0-t) ([2]; mouse, po, male CD-1 mice, intragastric administration, 20 mg/kg, plasma) of 307 µM·h and a Cmax ([2]; mouse, po, male CD-1 mice, intragastric administration, 20 mg/kg, plasma, read-out: Highest concentration Cmax) of 33.4 µM. For the same compound, the IC50 [1] was 38.2 nM and the IC50 (IDH1 wt (wild type)) was > 10000 nM.

Work on C[C@H](c1cccc(Cl)c1)n1c(Nc2ccc(OC(F)(F)F)cc2)nc2cc(CCC(=O)O)ccc21 [Example 7] yielded an IC50 (IDH1(R132H)) of 121 nM.

In the case of O=C(O)CCc1ccc2c(c1)nc(Nc1ccc(OC(F)(F)F)cc1)n2[C@@H]1CCc2ccccc21 [Example 8], the IC50 (IDH1(R132H)) is reported as 2.88 nM.

For O=C(O)CCc1ccc2c(c1)nc(Nc1ccc(OC(F)(F)F)cc1)n2C(c1ccccc1)c1ccccc1 [Example 9], the IC50 (IDH1(R132H)) was 21.9 nM.

COc1ccccc1[C@@H](C)n1c(Nc2ccc(OC(F)(F)F)cc2)nc2cc(CCC(=O)O)ccc21 [Example 10] gave an IC50 (IDH1(R132H)) of 344 nM.

Work on CC(C)(C)[C@H](c1ccccc1)n1c(Nc2ccc(OC(F)(F)F)cc2)nc2cc(CCC(=O)O)ccc21 [Example 11] yielded an IC50 (IDH1(R132H)) of 24.5 nM.

Compound O=C(O)CCc1ccc2c(c1)nc(Nc1ccc(OC(F)(F)F)cc1)n2[C@@H](c1ccccc1)C1CC1 [Example 12] has an IC50 (IDH1(R132H)) of 15.7 nM.
